The record followed here is ChEMBL document CHEMBL1140326, “Dicarboxylic acid azacycle l-prolyl-pyrrolidine amides as prolyl oligopeptidase inhibitors and three-dimensional quantitative structure-activity relationship of the enzyme-inhibitor interactions” (J Med Chem, 2005).

Each structure is given as a SMILES string.

The target of the assay is Prolyl endopeptidase (Sus scrofa, UniProt P23687). The experiment in a line: In vitro inhibitory activity against porcine prolyl oligopeptidase by using 4 mM Suc-Gly-Pro-7-amido-4-methylcoumarin as substrate (pH 7.0) at 30 degree C for 60 min.

One may read the IC50 as the concentration that inhibits the measured activity by half. Higher therefore signals weaker potency.

Prolyl endopeptidase, sequence (P23687 whole entry): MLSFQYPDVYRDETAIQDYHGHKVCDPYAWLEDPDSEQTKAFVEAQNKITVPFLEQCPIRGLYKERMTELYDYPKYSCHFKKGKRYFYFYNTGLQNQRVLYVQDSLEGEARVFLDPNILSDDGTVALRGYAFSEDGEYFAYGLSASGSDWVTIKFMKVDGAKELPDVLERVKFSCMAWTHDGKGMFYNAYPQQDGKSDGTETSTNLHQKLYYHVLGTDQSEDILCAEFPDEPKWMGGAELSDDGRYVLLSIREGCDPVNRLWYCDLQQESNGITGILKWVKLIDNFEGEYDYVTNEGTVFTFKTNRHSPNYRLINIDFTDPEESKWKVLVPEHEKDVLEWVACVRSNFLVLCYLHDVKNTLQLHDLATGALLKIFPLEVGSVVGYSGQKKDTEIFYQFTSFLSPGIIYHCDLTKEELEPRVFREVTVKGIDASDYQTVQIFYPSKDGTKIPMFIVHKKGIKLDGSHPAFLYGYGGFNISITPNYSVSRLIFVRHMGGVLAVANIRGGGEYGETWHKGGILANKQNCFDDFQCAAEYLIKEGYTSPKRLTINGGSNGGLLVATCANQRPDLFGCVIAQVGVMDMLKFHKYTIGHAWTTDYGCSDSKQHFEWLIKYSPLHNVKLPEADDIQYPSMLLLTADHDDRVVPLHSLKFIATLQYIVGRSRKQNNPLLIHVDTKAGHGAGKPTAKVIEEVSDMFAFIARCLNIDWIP

With `O=C(NCc1ccccc1)[C@@H]1CCCN1C(=O)c1cccc(C(=O)N2CCC[C@H]2C(=O)N2CCCC2)c1`, half-maximal inhibition (IC50) required 31 nM.

In the case of `O=C(c1ccccc1)[C@@H]1CCCN1C(=O)c1cccc(C(=O)N2CCC[C@H]2C(=O)N2CCCC2)c1`, the IC50 was determined as 18 nM.

In turn, `CC(=O)[C@@H]1CCCN1C(=O)c1cccc(C(=O)N2CCC[C@H]2C(=O)N2CCC[C@H]2C#N)c1` displayed a concentration for half-maximal inhibition (IC50) of 4.2 nM.

The molecule `O=C(CO)[C@@H]1CCCN1C(=O)[C@@H]1CCCN1C(=O)c1cccc(C(=O)N2CCC[C@H]2C(=O)C2CCCC2)c1` yielded an IC50 of 0.61 nM.

On to `O=C([C@@H]1CCCN1C(=O)c1ccc(C(=O)N2CCC[C@H]2C(=O)N2CCCC2)cc1)N1CCCC1`, for which the concentration for half-maximal inhibition (IC50) worked out at 81 nM.

Regarding `O=C([C@@H]1CCCN1C(=O)c1cccc(C(=O)N2CCC[C@H]2C(=O)N2CCCC2)c1)N1CCCCCC1`, the midpoint of inhibition, the IC50, lay at 23 nM.

On to `CC(C)C(=O)[C@@H]1CCCN1C(=O)c1cccc(C(=O)N2CCC[C@H]2C(=O)N2CCC[C@H]2C#N)c1`, for which the IC50 stood at 1.6 nM.

`O=C(CCC(=O)N1CCC[C@H]1C(=O)N1CCCC1)N1CCCC1` gave an IC50 of 110 nM.

In turn, `N#C[C@@H]1CCCN1C(=O)[C@@H]1CCCN1C(=O)c1cccc(C(=O)N2CCCCCC2)c1` gave an IC50 of 4.6 nM.

Molecule `N#C[C@@H]1CCCN1C(=O)[C@@H]1CCCN1C(=O)CCCC(=O)N1CCCCCC1` gave an IC50 of 1.2 nM.

Regarding `CC(=O)[C@@H]1CCCN1C(=O)c1cccc(C(=O)N2CCC[C@H]2C(=O)N2CCC[C@H]2C(=O)CO)c1`, the IC50 was 1.2 nM.

For the molecule `N#C[C@@H]1CCCN1C(=O)[C@@H]1CCCN1C(=O)c1ccccc1C(=O)N1CCCC1`, the IC50 turned out to be 1500 nM.

The molecule `O=C([C@@H]1CCCN1C(=O)CCCCC(=O)N1CCC[C@H]1C(=O)N1CCCC1)N1CCCC1` showed an IC50 of 68 nM.

`N#C[C@@H]1CCCN1C(=O)[C@@H]1CCCN1C(=O)CCC(=O)N1CCCCCC1` displayed an IC50 of 0.76 nM.

Take `O=C(CCC(=O)N1CCC[C@H]1C(=O)N1CCCC1)N1CCCCCC1`: the midpoint of inhibition, the IC50, lay at 41 nM.

The molecule `N#C[C@@H]1CCCN1C(=O)[C@@H]1CCCN1C(=O)c1cccc(C(=O)N2CCCC2)c1` returned an IC50 of 6.9 nM.

For the molecule `N#C[C@@H]1CCCN1C(=O)[C@@H]1CCCN1C(=O)c1cccc(C(=O)N2CCC[C@H]2C(=O)C2CCCC2)c1`, inhibition was half-maximal at 1.1 nM (IC50).

The molecule `O=C(C1CCCC1)[C@@H]1CCCN1C(=O)c1cccc(C(=O)N2CCC[C@H]2C(=O)N2CCCC2)c1` yielded an IC50 of 14 nM.

`CC(C)(C)OC(=O)N1CCN(C(=O)[C@@H]2CCCN2C(=O)c2cccc(C(=O)N3CCC[C@H]3C(=O)N3CCCC3)c2)CC1`: the IC50 turned out to be 170 nM.

As for `O=C(N[C@@H](Cc1ccccc1)C(=O)N1CCCC1)c1cccc(C(=O)N[C@@H](Cc2ccccc2)C(=O)N2CCCC2)c1`, the IC50 was determined as 81 nM.

Molecule `O=C(CO)[C@@H]1CCCN1C(=O)[C@@H]1CCCN1C(=O)CCCc1ccccc1` displayed a half-inhibitory concentration (IC50) of 0.22 nM.

`N#C[C@@H]1CCCN1C(=O)[C@@H]1CCCN1C(=O)CCC(=O)N1CCCC1` had an IC50 of 2.9 nM.

Consider `N#C[C@@H]1CCCN1C(=O)[C@@H]1CCCN1C(=O)c1ccccc1`, for which the IC50 was determined as 3.1 nM.

The molecule `N#C[C@@H]1CCCN1C(=O)[C@@H]1CCCN1C(=O)c1cccc(C(=O)N2CCC[C@H]2C(=O)C2CCCCC2)c1` had a 50% inhibitory concentration (IC50) of 0.72 nM.

Molecule `O=C(CCC(=O)N1CCC[C@H]1C(=O)N1CCCC1)N1CCOCC1` came in with an IC50 of 1200 nM.

Molecule `N#C[C@@H]1CCCN1C(=O)[C@@H]1CCCN1C(=O)c1cccc(C(=O)N2CCC[C@H]2C(=O)c2ccccc2)c1` gave an IC50 of 1.3 nM.

`CC(=O)[C@@H]1CCCN1C(=O)c1cccc(C(=O)N2CCC[C@H]2C(=O)N2CCCC2)c1`: the half-inhibitory concentration (IC50) came out at 65 nM.

On to `CC(C)(CC(=O)N1CCCCCC1)CC(=O)N1CCC[C@H]1C(=O)N1CCC[C@H]1C#N`, for which inhibition was half-maximal at 0.39 nM (IC50).

On to `O=C([C@@H]1CCCN1C(=O)CCC(=O)N1CCC[C@H]1C(=O)N1CCCC1)N1CCCC1`, for which the IC50 was 77 nM.

For `N#C[C@@H]1CCCN1C(=O)[C@@H]1CCCN1C(=O)c1ccc(C(=O)N2CCCC2)cc1`, the IC50 came to 1.6 nM.

As to `O=C(c1ccccc1C(=O)N1CCC[C@H]1C(=O)N1CCCC1)N1CCCC1`, the IC50 came out at 19000 nM.

Regarding `O=C([C@@H]1CCCN1C(=O)c1cccc(C(=O)N2CCC[C@H]2C(=O)N2CCNCC2)c1)N1CCCC1`, the IC50 was 33 nM.
